The record followed here is US10328104B2, “Methods for treating nuclear factor kappa-light-chain-enhancer of activated B cell (NF-κB) dysregulation in a host in need thereof using eggshell membrane compositions” (ESM TECHNOLOGIES, LLC, priority 2015, dated 2019).

Each structure is given as a SMILES string.

Assay [1] relates to human suffering from cardiovascular disease (hypertension). The assay can be described thus: Resting blood pressure in a human suffering from cardiovascular disease taking NEM orally, case report. The following applies: first subject; atenolol 100 mg/day, before NEM. Type of assay: in vivo. As to the method:
(§1) The following examples are illustrative of the efficacy of an orally administered eggshell membrane product (trade name NEM®) in treating a human suffering from cardiovascular disease. […] The subject was treating their hypertension with 100 mg/day of atenolol. […] The subject had also had four cardiac stents placed to treat atherosclerotic stenosis (narrowing) of various cardiac blood vessels. The subject consumed one 500 mg capsule per day of NEM® as prepared in Example 5 for about 12 months before noticing an effect on lipid panel results. The subject continued the NEM® regimen for an additional approximately 12 months (about 2 years total). Follow-up lipid panel results were: TC=138 mg/dL, LDL=80 mg/dL, HDL=41 mg/dL, and TG=84 mg/dL. […] The subject also found it necessary to reduce the atenolol dose from 100 mg/day to 25 mg/day.

Assay [2] relates to human suffering from cardiovascular disease (hyperlipidemia, hypertriglyceridemia). Kind of assay: Lipid panel in humans suffering from cardiovascular disease taking NEM orally, case reports. In kind it is in vivo. The following applies: second subject; treated with 10 mg/day atorvastatin, before NEM. As to the method:
as §1
A second human with a recent history of cardiovascular disease (hyperlipidemia & hypertriglyceridemia only) was being treated with 10 mg/day of atorvastatin. Treated lipid panel results for this subject were: TC=207 mg/dL, LDL=114 mg/dL, HDL=47 mg/dL, and TG=247 mg/dL. […] The subject consumed one 500 mg capsule per day of NEM® as prepared in Example 5 for about 2 years. Follow-up lipid panel results were: TC=150 mg/dL, LDL=81 mg/dL, HDL=46 mg/dL, and TG=113 mg/dL.

Regarding `CC(C)NCC(O)COc1ccc(CC(N)=O)cc1` (stereo not drawn) [atenolol], in assay [1], the “resting diastolic blood pressure” value amounted to 84 mm Hg and the “resting systolic blood pressure” value came out at 146 mm Hg.
For the compound `CC(C)c1c(C(=O)Nc2ccccc2)c(-c2ccccc2)c(-c2ccc(F)cc2)n1CC[C@@H](O)C[C@@H](O)CC(=O)O` [atorvastatin], in assay [2], the HDL came out at 47 mg/dL, the LDL came to 114 mg/dL, the TG is 247 mg/dL and the “Total cholesterol (TC)” value is 207 mg/dL.
